Source: patent US20240041042A1, “1-(PYRIDYL)-5-AZINYLPYRAZOLE DERIVATIVES, AND THEIR USE FOR CONTROL OF UNDESIRED PLANT GROWTH” (Bayer Aktiengesellschaft, priority 2020, published 2024)

How the values were obtained:
Assay type in all cases: in vivo
[1] = tested on: Abutilon theophrasti (ABUTH); assay: Pre-emergence herbicidal action against ABUTH; conditions: Dosage column 320 g/ha (title prints 3200 g/ha); scored visually after about 3 weeks; 100% = plants have died
Method in brief: (§1)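 Dosages of 320 g/ha or less; pre-emergence; WP or EC in aqueous spray, 0.5% additive, 600 l/ha; greenhouse; visual % effect after ~3 wk relative to control pots.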

[2] = tested on: Alopecurus myosuroides (ALOMY); assay: Pre-emergence herbicidal action against ALOMY; conditions: scored visually after about 3 weeks, 100% = plants have died
Method in brief: as §1

[3] = tested on: Amaranthus retroflexus (AMARE); assay: Pre-emergence herbicidal action against AMARE; conditions: visual scoring after about 3 weeks vs untreated controls
Method in brief: as §1

[4] = tested on: Avena fatua (AVEFA); assay: Pre-emergence herbicidal action against AVEFA; conditions: visual scoring after about 3 weeks vs untreated controls
Method in brief: as §1

[5] = tested on: Echinochloa crus-galli (ECHCG); assay: Pre-emergence herbicidal action against ECHCG
Method in brief: as §1

[6] = tested on: Lolium rigidum (LOLRI); assay: Pre-emergence herbicidal action against LOLRI
Method in brief: as §1

[7] = tested on: Matricaria inodora (MATIN); assay: Pre-emergence herbicidal action against MATIN
Method in brief: as §1

[8] = tested on: Pharbitis purpurea (PHBPU); assay: Pre-emergence herbicidal action against PHBPU
Method in brief: as §1

[9] = tested on: Polygonum convolvulus (POLCO); assay: Pre-emergence herbicidal action against POLCO
Method in brief: as §1

[10] = tested on: Setaria viridis (SETVI); assay: Pre-emergence herbicidal action against SETVI
Method in brief: as §1

[11] = tested on: Verconica persica (VERPE); assay: Pre-emergence herbicidal action against VERPE
Method in brief: as §1

[12] = tested on: Viola tricolor (VIOTR); assay: Pre-emergence herbicidal action against VIOTR
Method in brief: as §1

[13] = tested on: Alopecurus myosuroides (ALOMY); assay: Post-emergence herbicidal action against ALOMY; conditions: visual rating about 3 weeks after treatment vs untreated controls (100% = plants have died, 0% = like control plants)
Method in brief: (§2)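 Values are percent visual activity (0% like control, 100% plants dead) after about 3 weeks in the greenhouse. Treatment: post-emergence spray at one-leaf stage, 600 l/ha spray volume, 0.5% additive, doses 320 g/ha or lower.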

[14] = tested on: Echinochloa crus-galli (ECHCG); assay: Post-emergence herbicidal action against ECHCG
Method in brief: as §2

[15] = tested on: Lolium rigidum (LOLRI); assay: Post-emergence herbicidal action against LOLRI
Method in brief: as §2

[16] = tested on: Matricaria inodora (MATIN); assay: Post-emergence herbicidal action against MATIN
Method in brief: as §2

[17] = tested on: Pharbitis purpurea (PHBPU); assay: Post-emergence herbicidal action against PHBPU
Method in brief: as §2

[18] = tested on: Setaria viridis (SETVI); assay: Post-emergence herbicidal action against SETVI
Method in brief: as §2

[19] = tested on: Verconica persica (VERPE); assay: Post-emergence herbicidal action against VERPE
Method in brief: as §2

[20] = tested on: Viola tricolor (VIOTR); assay: Post-emergence herbicidal action against VIOTR
Method in brief: as §2

[21] = tested on: Avena fatua (AVEFA); assay: Post-emergence herbicidal action against AVEFA; conditions: visual rating about 3 weeks after treatment
Method in brief: as §2

[22] = tested on: Oryza sativa (ORYSA); conditions: crop plant compatibility, 80 g/ha, effect in comparison to untreated controls
Method in brief: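 Test crops were treated 2 to 3 weeks after sowing, once they reached one leaf, by spraying compound in water with 0.5% additive at 600 l/ha. Visual scoring compared them with untreated controls roughly 3 weeks on, and appendices a, b and c denote different doses.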

Row | SMILES | Pre-emergence action against ABUTH [1] | Pre-emergence action against ALOMY ([2]; 320 g/ha) | Pre-emergence action against AMARE in % ([3]; 80 g/ha) | Pre-emergence action against AMARE in % ([3]; 320 g/ha) | Pre-emergence action against AVEFA in % ([4]; 320 g/ha) | Pre-emergence action against ECHCG in % ([5]; dosage 80 g/ha) | Pre-emergence action against ECHCG in % ([5]; dosage 320 g/ha) | Pre-emergence action against LOLRI in % ([6]; dosage 320 g/ha) | Pre-emergence action against MATIN in % ([7]; dosage 80 g/ha) | Pre-emergence action against MATIN in % ([7]; dosage 320 g/ha) | Pre-emergence action against PHBPU in % ([8]; dosage 80 g/ha) | Pre-emergence action against PHBPU in % ([8]; dosage 320 g/ha) | Pre-emergence action against POLCO in % ([9]; dosage 80 g/ha) | Pre-emergence action against POLCO in % ([9]; dosage 320 g/ha) | Pre-emergence action against SETVI in % ([10]; dosage 320 g/ha) | Pre-emergence action against VERPE in % ([11]; dosage 320 g/ha) | Pre-emergence action against VIOTR in % ([12]; 320 g/ha, Viola tricolor) | Pre-emergence action against VIOTR in % ([12]; dosage 80 g/ha) | Post-emergence action against ALOMY in % ([13]; 320 g/ha) | Post-emergence action against ECHCG in % ([14]; dosage 80 g/ha) | further results
1 | CCOC(=O)COc1nn(-c2ncccc2C)c(-c2cncc(F)c2)c1Br [Example I-211] | 80% | 100% | 100% | 100% | 90% | 90% | 100% | 80% | 90% | 90% | 90% | 90% | 90% | 90% | 100% | 100% | 100% | 90% | 90% | 80% | Pre-emergence action against ALOMY ([2]; 80 g/ha): 80%; Pre-emergence action against SETVI in % ([10]; dosage 80 g/ha): 90%; Post-emergence action against ALOMY in % ([13]; 80 g/ha): 80%; Post-emergence action against ECHCG in % ([14]; dosage 320 g/ha): 80%; Post-emergence action against LOLRI in % ([15]; dosage 320 g/ha): 80%; Post-emergence action against MATIN in % ([16]; dosage 80 g/ha): 80%; Post-emergence action against MATIN in % ([16]; dosage 320 g/ha): 80%; Post-emergence action against PHBPU in % ([17]; dosage 80 g/ha): 90%; Post-emergence action against PHBPU in % ([17]; dosage 320 g/ha): 100%; Post-emergence action against SETVI in % ([18]; dosage 80 g/ha): 80%; Post-emergence action against SETVI in % ([18]; dosage 320 g/ha): 80%; Post-emergence action against VERPE in % ([19]; 320 g/ha, VERPE): 90%; Post-emergence action against VERPE in % ([19]; dosage 80 g/ha): 80%; Post-emergence action against VIOTR in % ([20]; 80 g/ha): 80%; Post-emergence action against VIOTR in % ([20]; 320 g/ha): 90%
2 | CCOC(=O)[C@@H](C)Oc1nn(-c2ncccc2F)c(-c2ccc(F)nc2)c1C(F)(F)F [Example I-308] | 100% | 100% | 100% | 100% | 100% | 100% | 100% | 100% | 100% | 100% | 90% | 90% | 100% | 100% | 100% | 100% | 100% | 100% | 100% | 90% | Pre-emergence action against ALOMY ([2]; 80 g/ha): 100%; Pre-emergence action against AVEFA in % ([4]; 80 g/ha): 100%; Pre-emergence action against LOLRI in % ([6]; dosage 80 g/ha): 100%; Pre-emergence action against VERPE in % ([11]; dosage 80 g/ha): 100%; Post-emergence action against ALOMY in % ([13]; 80 g/ha): 100%; Post-emergence action against AVEFA in % ([21]; 80 g/ha): 90%; Post-emergence action against AVEFA in % ([21]; 320 g/ha): 90%; Post-emergence action against ECHCG in % ([14]; dosage 320 g/ha): 90%; Post-emergence action against LOLRI in % ([15]; dosage 80 g/ha): 90%; Post-emergence action against LOLRI in % ([15]; dosage 320 g/ha): 100%; Post-emergence action against MATIN in % ([16]; dosage 80 g/ha): 80%; Post-emergence action against MATIN in % ([16]; dosage 320 g/ha): 90%; Post-emergence action against PHBPU in % ([17]; dosage 320 g/ha): 90%; Post-emergence action against VERPE in % ([19]; 320 g/ha, VERPE): 90%; Post-emergence action against VERPE in % ([19]; dosage 80 g/ha): 90%; Post-emergence action against VIOTR in % ([20]; 80 g/ha): 90%; Post-emergence action against VIOTR in % ([20]; 320 g/ha): 90%
3 | C[C@@H](Oc1nn(-c2nc(F)ccc2F)c(-c2cncc(F)c2)c1Br)C(=O)O [Example I-155] | 90% | 100% | 90% | 100% | 90% | 90% | 100% | 100% | 90% | 90% | 90% | 90% | 90% | 90% | 100% | 100% | 100% | 100% | 80% | 80% | Pre-emergence action against LOLRI in % ([6]; dosage 80 g/ha): 90%; Pre-emergence action against SETVI in % ([10]; dosage 80 g/ha): 80%; Post-emergence action against AVEFA in % ([21]; 320 g/ha): 80%; Post-emergence action against ECHCG in % ([14]; dosage 320 g/ha): 80%; Post-emergence action against LOLRI in % ([15]; dosage 320 g/ha): 80%; Post-emergence action against MATIN in % ([16]; dosage 320 g/ha): 80%; Post-emergence action against PHBPU in % ([17]; dosage 80 g/ha): 80%; Post-emergence action against PHBPU in % ([17]; dosage 320 g/ha): 90%; Post-emergence action against SETVI in % ([18]; dosage 80 g/ha): 80%; Post-emergence action against SETVI in % ([18]; dosage 320 g/ha): 90%; Post-emergence action against VERPE in % ([19]; 320 g/ha, VERPE): 80%; Post-emergence action against VERPE in % ([19]; dosage 80 g/ha): 80%; Post-emergence action against VIOTR in % ([20]; 80 g/ha): 80%; Post-emergence action against VIOTR in % ([20]; 320 g/ha): 80%; Post-emergence action against ORYSA in % [22]: 10%
4 | C[C@@H](Oc1nn(-c2ncccc2F)c(-c2ccc(F)nc2)c1C(F)(F)F)C(=O)O [Example I-317] | 90% | 100% | 100% | 100% | 100% | 100% | 100% | 100% | 100% | 100% | 90% | 90% | 100% | 100% | 90% | 100% | 100% | 100% | 100% | 80% | Pre-emergence action against ALOMY ([2]; 80 g/ha): 100%; Pre-emergence action against AVEFA in % ([4]; 80 g/ha): 90%; Pre-emergence action against LOLRI in % ([6]; dosage 80 g/ha): 100%; Pre-emergence action against SETVI in % ([10]; dosage 80 g/ha): 80%; Pre-emergence action against VERPE in % ([11]; dosage 80 g/ha): 80%; Post-emergence action against ALOMY in % ([13]; 80 g/ha): 100%; Post-emergence action against AVEFA in % ([21]; 80 g/ha): 90%; Post-emergence action against AVEFA in % ([21]; 320 g/ha): 90%; Post-emergence action against ECHCG in % ([14]; dosage 320 g/ha): 90%; Post-emergence action against LOLRI in % ([15]; dosage 80 g/ha): 90%; Post-emergence action against LOLRI in % ([15]; dosage 320 g/ha): 90%; Post-emergence action against MATIN in % ([16]; dosage 80 g/ha): 90%; Post-emergence action against MATIN in % ([16]; dosage 320 g/ha): 90%; Post-emergence action against PHBPU in % ([17]; dosage 320 g/ha): 80%; Post-emergence action against VERPE in % ([19]; 320 g/ha, VERPE): 90%; Post-emergence action against VERPE in % ([19]; dosage 80 g/ha): 90%; Post-emergence action against VIOTR in % ([20]; 80 g/ha): 90%; Post-emergence action against VIOTR in % ([20]; 320 g/ha): 90%
